The values below come from patent US11142515B2, “Pyrazolyl-ureas as kinase inhibitors” (RESPIVERT LIMITED, priority 2014, dated 2021).

Where only a bound is given, the exact number is not on record here.

The target in test [1] is T1, p38 MAPKα isoform (MAPK14) (Homo sapiens, UniProt Q16539).
T1 construct: purchased Life Technologies
Briefly: p38 MAPKα enzyme inhibition (Z-LYTE FRET). The class given is biochemical. The conditions noted are these: Table 2B, unit inferred; read-out: p38 MAPKα (Enzyme Profile). An outline of the steps:
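Recombinant human MAPK14 (40 ng/mL stock) was preincubated 2 h at RT with compound (stock dilutions 0.0012-40 μg/mL). The Z-LYTE FRET read-out used a MAPKAP-K2-derived peptide, and protease development for 1 h cleaved only non-phosphorylated peptide. Phosphorylation was calculated from the coumarin/fluorescein emission ratio.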

A further test deals with T2, p38MAPKγ (MAPK12) (Homo sapiens, UniProt P53778).
T2 construct: purchased Life Technologies
T2 sequence (P53778 1-367): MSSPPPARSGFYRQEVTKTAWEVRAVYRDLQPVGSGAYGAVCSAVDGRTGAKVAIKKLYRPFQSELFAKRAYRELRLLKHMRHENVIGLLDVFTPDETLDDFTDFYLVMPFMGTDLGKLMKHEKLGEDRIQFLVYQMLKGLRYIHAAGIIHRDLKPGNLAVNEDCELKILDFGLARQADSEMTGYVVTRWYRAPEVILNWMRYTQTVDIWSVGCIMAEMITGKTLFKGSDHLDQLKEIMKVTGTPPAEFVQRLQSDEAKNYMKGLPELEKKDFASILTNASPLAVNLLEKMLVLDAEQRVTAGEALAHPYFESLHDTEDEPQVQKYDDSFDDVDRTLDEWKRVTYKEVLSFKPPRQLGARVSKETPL
Briefly: p38 MAPKγ enzyme inhibition (Z-LYTE FRET). The class given is biochemical. The conditions noted are these: Table 2B, unit inferred; read-out: p38 MAPKγ (Enzyme Profile). A digest of the protocol:
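Z-LYTE read-out: after 1 h protease development, only non-phosphorylated peptide is cleaved, and the donor/acceptor (coumarin/fluorescein) ratio reports phosphorylation. Beforehand, enzyme and compound (stock concentrations 0.0012–40 μg/mL) were preincubated 2 h at RT, then the kinase reaction ran 1 h at RT with peptide and ATP (8 μM and 400 μM stocks).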

T1 sequence (Q16539 whole entry, canonical isoform): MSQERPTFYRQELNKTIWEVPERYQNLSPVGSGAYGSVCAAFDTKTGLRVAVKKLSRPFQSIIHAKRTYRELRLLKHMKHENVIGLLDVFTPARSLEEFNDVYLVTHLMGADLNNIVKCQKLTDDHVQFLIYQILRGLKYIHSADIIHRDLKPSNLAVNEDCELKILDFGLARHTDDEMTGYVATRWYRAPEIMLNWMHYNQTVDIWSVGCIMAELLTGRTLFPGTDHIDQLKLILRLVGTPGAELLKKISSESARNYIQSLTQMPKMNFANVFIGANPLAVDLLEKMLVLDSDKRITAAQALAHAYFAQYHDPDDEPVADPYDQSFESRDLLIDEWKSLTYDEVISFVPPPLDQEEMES

As to `Cc1ccc(-n2nc(C(C)(C)C)cc2NC(=O)Nc2ccc(OCc3ccnc(Nc4cnc5c(n4)CCC5)c3)c3ccccc23)cc1` [Example 130, 1-(3-(tert-butyl)-1-(p-tolyl)-1H-pyrazol-5-yl)-3-(4-((2-((6,7-dihydro-5H-cyclopenta [b]pyrazin-2-yl)amino)pyridin-4-yl)methoxy)naphthalen-1-yl)urea], the IC50 in test [1] was 31 nM; on p38MAPKγ (MAPK12), 2790 nM.
Consider `CC(C)c1cccc(-n2nc(C(C)(C)C)cc2NC(=O)Nc2ccc(OCc3ccnc(Nc4cnccn4)c3)c3ccccc23)c1` [Example 131, 1-(3-(tert-butyl)-1-(3-isopropylphenyl)-1H-pyrazol-5-yl)-3-(4-((2-(pyrazin-2-ylamino)pyridin-4-yl)methoxy)naphthalen-1-yl) urea], for which the IC50 in test [1] was 14 nM; on p38MAPKγ (MAPK12), more than 15900 nM.
With `COCCNC(=O)c1cnc(Nc2cc(COc3ccc(NC(=O)Nc4cc(C(C)(C)C)nn4-c4ccc(OC)c(C)c4)c4ccccc34)ccn2)cn1` [Example 132, 5-((4-(((4-(3-(3-(tert-butyl)-1-(4-methoxy-3-methyl-phenyl)-1H-pyrazol-5-yl)ureido)naphthalen-1-yl)oxy)methyl)pyridin-2-yl)amino)-N-(2-methoxyethyl)pyrazine-2-carboxamide], the IC50 was 11 nM in test [1] and more than 13700 nM on p38MAPKγ (MAPK12).
Consider `COc1ccc(-n2nc(C(C)(C)C)cc2NC(=O)Nc2ccc(OCc3ccnc(Nc4cnc(CO)cn4)c3)c3ccccc23)cc1C` [Example 133, 1-(3-(tert-butyl)-1-(4-methoxy-3-methylphenyl)-1H-pyrazol-5-yl)-3-(4-((2-((5-(hydroxymethyl)pyrazin-2-yl)amino)pyridin-4-yl)methoxy)naphthalen-1-yl) urea], for which the IC50 in test [1] stood at 7.3 nM; on p38MAPKγ (MAPK12), 10200 nM.
For the compound `Cc1ccc(-n2nc(C(C)(C)C)cc2NC(=O)Nc2ccc(OCc3ccnc(Nc4cnc(C(=O)NCCCO)cn4)c3)c3ccccc23)cc1` [Example 134, 5-((4-(((4-(3-(3-(tert-butyl)-1-(p-tolyl)-1H-pyrazol-5-yl)ureido)naphthalen-1-yl)oxy)methyl)pyridin-2-yl)amino)-N-(3-hydroxy-propyl)pyrazine-2-carboxamide], the values for the IC50 (in test [1]; on p38MAPKγ (MAPK12)) were 3.8 nM and 35 nM, respectively.
In the case of `COc1ccc(-n2nc(C(C)(C)C)cc2NC(=O)Nc2ccc(OCc3ccnc(Nc4cnc(C)c(C)n4)c3)c3ccccc23)cc1C` [Example 135, 1-(3-(tert-butyl)-1-(4-methoxy-3-methylphenyl)-1H-pyrazol-5-yl)-3-(4-((2-((5,6-dimethylpyrazin-2-yl)amino)pyridin-4-yl)methoxy)naphthalen-1-yl) urea], the IC50 in test [1] is 52 nM; at p38MAPKγ (MAPK12), more than 15200 nM.
On the same counts, the results for `Cc1ccc(-n2nc(C(C)(C)C)cc2NC(=O)Nc2ccc(OCc3ccnc(Nc4cnc(C(=O)N5CCN(C)CC5)cn4)c3)c3ccccc23)cc1` [Example 136, 1-(3-(tert-butyl)-1-(p-tolyl)-1H-pyrazol-5-yl)-3-(4-((2-((5-(4-methylpiperazine-1-carbonyl)pyrazin-2-yl)amino)pyridin-4-yl)methoxy)naphthalen-1-yl)urea] are less than 0.41 nM and 41 nM.
On the same counts, the results for `Cc1ccc(-n2nc(C(C)(C)C)cc2NC(=O)Nc2ccc(OCc3ccnc(Nc4cnc(C(=O)N5CCCCC5)cn4)c3)c3ccccc23)cc1` [Example 137, 1-(3-(tert-butyl)-1-(p-tolyl)-1H-pyrazol-5-yl)-3-(4-((2-((5-(piperidine-1-carbonyl)pyrazin-2-yl)amino)pyridin-4-yl)methoxy)naphthalen-1-yl)urea] are 6 nM and more than 14100 nM.
On the same counts, the results for `Cc1ccc(-n2nc(C(C)(C)C)cc2NC(=O)Nc2ccc(OCc3ccnc(Nc4cnc5c(n4)CCCC5)c3)c3ccccc23)cc1` [Example 138, 1-(3-(tert-butyl)-1-(p-tolyl)-1H-pyrazol-5-yl)-3-(4-((2-((5,6,7,8-tetrahydro-quinoxalin-2-yl)amino)pyridin-4-yl)methoxy)naphthalen-1-yl)urea] are 29 nM and more than 15300 nM.
For `CCc1ncc(Nc2cc(COc3ccc(NC(=O)Nc4cc(C(C)(C)C)nn4-c4ccc(C)cc4)c4ccccc34)ccn2)nc1CC` [Example 139, 1-(3-(tert-butyl)-1-(p-tolyl)-1H-pyrazol-5-yl)-3-(4-((2-((5,6-diethylpyrazin-2-yl)amino)pyridin-4-yl)methoxy)naphthalen-1-yl) urea], the values for the IC50 (in test [1]; on p38MAPKγ (MAPK12)) were 53 nM and 1110 nM, respectively.
For `CCc1cncc(Nc2cc(COc3ccc(NC(=O)Nc4cc(C(C)(C)C)nn4-c4ccc(OC)c(C)c4)c4ccccc34)ccn2)n1` [Example 140, 1-(3-(tert-butyl)-1-(4-methoxy-3-methylphenyl)-1H-pyrazol-5-yl)-3-(4-((2-((6-ethylpyrazin-2-yl)amino)pyridin-4-yl)methoxy)naphthalen-1-yl)urea], the IC50 in test [1] was 29 nM; at p38MAPKγ (MAPK12), more than 15200 nM.
Turning to `CCc1cncc(Nc2cc(COc3ccc(NC(=O)Nc4cc(C(C)(C)C)nn4-c4cccc(C)c4)c4ccccc34)ccn2)n1` [Example 141, 1-(3-(tert-butyl)-1-(m-tolyl)-1H-pyrazol-5-yl)-3-(4-((2-((6-ethylpyrazin-2-yl)amino)pyridin-4-yl)methoxy)naphthalen-1-yl)urea], the IC50 in test [1] was determined as 18 nM; on p38MAPKγ (MAPK12), 438 nM.
With `COc1cccc(-n2nc(C(C)(C)C)cc2NC(=O)Nc2ccc(OCc3ccnc(Nc4cnccn4)c3)c3ccccc23)c1` [Example 142, 1-(3-(tert-butyl)-1-(3-methoxyphenyl)-1H-pyrazol-5-yl)-3-(4-((2-(pyrazin-2-ylamino)pyridin-4-yl)methoxy)naphthalen-1-yl) urea], the IC50 in test [1] turned out to be 5.7 nM; at p38MAPKγ (MAPK12) it was 78 nM.
In the case of `CCc1nc(Nc2cc(COc3ccc(NC(=O)Nc4cc(C(C)(C)C)nn4-c4ccc(C)cc4)c4ccccc34)ccn2)cnc1C` [Example 143, 1-(3-(tert-butyl)-1-(p-tolyl)-1H-pyrazol-5-yl)-3-(4-((2-((6-ethyl-5-methylpyrazin-2-yl)amino)pyridin-4-yl)methoxy)naphthalen-1-yl) urea], the IC50 in test [1] came out at 19 nM; on p38MAPKγ (MAPK12) it was 211 nM.
On to `CCc1cncc(Nc2cc(COc3ccc(NC(=O)Nc4cc(C(C)(C)C)nn4-c4ccc(C)c(C)c4)c4ccccc34)ccn2)n1` [Example 144, 1-(3-(tert-butyl)-1-(3,4-dimethylphenyl)-1H-pyrazol-5-yl)-3-(4-((2-((6-ethylpyrazin-2-yl)amino)pyridin-4-yl)methoxy)naphthalen-1-yl)urea], for which the values for the IC50 (in test [1]; on p38MAPKγ (MAPK12)) were 63 nM and 518 nM, respectively.
The matching figures for `Cc1ccc(-n2nc(C(C)(C)C)cc2NC(=O)Nc2ccc(OCc3ccnc(Nc4cncc(C5CC5)n4)c3)c3ccccc23)cc1C` [Example 145, 1-(3-(tert-butyl)-1-(3,4-dimethylphenyl)-1H-pyrazol-5-yl)-3-(4-((2-((6-cyclopropylpyrazin-2-yl)amino)pyridin-4-yl)methoxy)naphthalen-1-yl)urea]: 43 nM and 260 nM.
Consider `Cc1ccc(-n2nc(C(C)(C)C)cc2NC(=O)Nc2ccc(OCc3ccnc(Nc4cnc(C)c(C)n4)c3)c3ccccc23)cc1C` [Example 146, 1-(3-(tert-butyl)-1-(3,4-dimethylphenyl)-1H-pyrazol-5-yl)-3-(4-((2-((5,6-dimethylpyrazin-2-yl)amino)pyridin-4-yl)methoxy)naphthalen-1-yl)urea], for which the IC50 is 69 nM in test [1] and 1550 nM on p38MAPKγ (MAPK12).
In the case of `Cc1ccc(-n2nc(C(C)(C)C)cc2NC(=O)Nc2ccc(OCc3ccnc(Nc4cnc(CO)cn4)c3)c3ccccc23)cc1C` [Example 147, 1-(3-(tert-butyl)-1-(3,4-dimethylphenyl)-1H-pyrazol-5-yl)-3-(4-((2-((5-(hydroxymethyl)pyrazin-2-yl)amino)pyridin-4-yl)methoxy)naphthalen-1-yl) urea], the IC50 in test [1] was found to be 4.1 nM; at p38MAPKγ (MAPK12) it was 119 nM.
Consider `COc1ccc(-n2nc(C(C)(C)C)cc2NC(=O)Nc2ccc(OCc3ccnc(Nc4cnccn4)c3)c3ccccc23)cc1F` [Example 148, 1-(3-(tert-butyl)-1-(3-fluoro-4-methoxyphenyl)-1H-pyrazol-5-yl)-3-(4-((2-(pyrazin-2-ylamino)pyridin-4-yl)methoxy)naphthalen-1-yl)urea], for which the IC50 in test [1] is 13 nM; on p38MAPKγ (MAPK12), 247 nM.
On to `CSc1ccc(-n2nc(C(C)(C)C)cc2NC(=O)Nc2ccc(OCc3ccnc(Nc4cnccn4)c3)c3ccccc23)cc1` [Example 149, 1-(3-(tert-butyl)-1-(4-(methylthio)phenyl)-1H-pyrazol-5-yl)-3-(4-((2-(pyrazin-2-ylamino)pyridin-4-yl)methoxy)naphthalen-1-yl)urea], for which the IC50 in test [1] is 13 nM; at p38MAPKγ (MAPK12), more than 15900 nM.
